The values that follow come from patent publication US20040092475A1, “Organic compounds” (priority 2002, published 2004).

Structures can show the parent of a compound that is named as a salt.

For one test, the target named is T1, human TRPC6 ion channel (Homo sapiens, UniProt Q9Y210).
T1 construct: expressed in transfected cells; host or cells: TRPC6 clone 14 cells
T1 sequence (Q9Y210 1-931): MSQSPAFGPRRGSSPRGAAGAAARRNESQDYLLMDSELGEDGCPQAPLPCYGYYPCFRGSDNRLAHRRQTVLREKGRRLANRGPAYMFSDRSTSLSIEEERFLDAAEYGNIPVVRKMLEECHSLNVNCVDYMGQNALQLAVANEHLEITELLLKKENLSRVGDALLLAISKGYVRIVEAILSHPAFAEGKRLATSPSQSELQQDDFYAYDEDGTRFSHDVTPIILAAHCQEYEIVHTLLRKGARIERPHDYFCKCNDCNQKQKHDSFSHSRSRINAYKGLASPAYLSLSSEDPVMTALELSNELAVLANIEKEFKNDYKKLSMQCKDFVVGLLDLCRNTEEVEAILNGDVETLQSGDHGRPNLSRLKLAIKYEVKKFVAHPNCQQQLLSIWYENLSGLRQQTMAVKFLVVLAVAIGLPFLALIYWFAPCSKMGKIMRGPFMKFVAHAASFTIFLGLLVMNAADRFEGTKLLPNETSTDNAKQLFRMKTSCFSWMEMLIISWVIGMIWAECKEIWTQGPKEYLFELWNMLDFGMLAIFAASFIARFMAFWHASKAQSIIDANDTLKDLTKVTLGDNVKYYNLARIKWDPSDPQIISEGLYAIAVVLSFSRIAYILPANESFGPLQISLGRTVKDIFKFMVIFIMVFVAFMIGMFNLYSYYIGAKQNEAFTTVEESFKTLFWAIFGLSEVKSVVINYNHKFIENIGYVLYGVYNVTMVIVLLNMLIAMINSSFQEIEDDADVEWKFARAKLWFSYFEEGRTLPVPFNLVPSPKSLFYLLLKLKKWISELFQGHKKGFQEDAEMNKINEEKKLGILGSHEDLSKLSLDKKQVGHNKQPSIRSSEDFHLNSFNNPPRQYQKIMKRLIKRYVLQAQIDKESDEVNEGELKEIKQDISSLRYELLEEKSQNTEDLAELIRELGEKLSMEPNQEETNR
Kind of test: FLIPR membrane potential assay, carbachol-stimulated TRPC6-expressing cells (TRPC6 clone 14). The class given is cell-based. To be noted: for Mean fluorescence response calculated as (Max − Min)/Min: 10 min pre-treatment, n=10 wells, control 1.219. The protocol:
In a suitable test for any inhibition of the TRPC6 channel, cells that express an endogenous G protein-coupled calcium mobilising receptor e.g. muscarinic acetylcholine receptor that can activate TRPC6 channels are used and a receptor agonist e.g. muscarinic acetylcholine receptor agonist is added to stimulate the TRPC6 channels. The cells are treated with the candidate substance prior to addition of the receptor agonist. That should produce an increase in fluorescence, but the magnitude of the increase will be reduced if the candidate substance inhibits the TRPC6 channels. Any change in fluorescence can be measured using suitable equipment, for example a fluorescence imaging plate reader.
An assay for screening candidate or test compounds is performed using cells stably-transfected with TRPC6 and expressing a functional TRPC6 channel e.g. the mammalian cell line HEK 293 which expresses an endogenous muscarinic acetylcholine receptor which can activate TRPC6 channels. […] The TRPC6-expressing cells are seeded in 96-well black-walled flat-bottomed microplates in a plating volume of 100 μl and grown to confluence for the assay. To prepare the cells for the assay, the cell culture medium is removed and 100 μl of loading buffer is added to each well. The loading buffer consists of FLIPR® membrane potential dye diluted to the required assay concentration in a buffer composed of 140 mM-NaCl, 0.15 mM CaCl2, 3.3 mM KH2PO4, 1.2 mM MgCl2, 10 mM D-glucose and 20 m M HEPES, at pH7.4 and containing 0.03 mM BAPTA-AM. The plates are incubated at 37° C. for 20 minutes prior to commencing the assay. For the detection of inhibitors of TRPC6, test agents are added to each well either before or after stimulation with the muscarinic acetylcholine receptor agonist carbachol, which activates the TRPC6 channel. The expected effect of an inhibitor would be to reduce the carbachol-stimulated increase in fluorescence. Activators of TRPC6 may be detected by substituting carbachol for a test agent, where activators will stimulate an increase in fluorescence.
TRPC6 clone 14 cells pre-treated with 1-[b-[3-(4-methoxyphenyl)propoxy]-4-methoxyphenethyl]-1H-imidazole.HCl for 10 minutes are stimulated with carbachol (10 μM) in accordance with the assay described in Example 2. The fluorescence is measured prior to carbachol addition (minimum response, i.e. Min.) and when the carbachol-stimulated increase in fluorescence has reached a maximum (maximum response, i.e. Max.). It can be seen in table 1 below that the reduced fluorescence responses are observed in compound treated-cells compared to the control response in the absence of compound.
The data is calculated as a (Max−Min)/Min response. Each concentration of 1-[b-[3-(4-methoxyphenyl)propoxy]-4-methoxyphenethyl]-1H-imidazole.HCl is the mean±SEM (standard error of the mean) of n=10 wells.

Test [1] concerns receptor-mediated calcium entry (RMCE). Conditions: Merritt et al, Biochem. J. (1990) 271: 515-522; cited from earlier work.
In the next test the target is T2, murine TRPC6 ion channel (Mus musculus, UniProt Q61143).
T2 sequence (Q61143 1-930): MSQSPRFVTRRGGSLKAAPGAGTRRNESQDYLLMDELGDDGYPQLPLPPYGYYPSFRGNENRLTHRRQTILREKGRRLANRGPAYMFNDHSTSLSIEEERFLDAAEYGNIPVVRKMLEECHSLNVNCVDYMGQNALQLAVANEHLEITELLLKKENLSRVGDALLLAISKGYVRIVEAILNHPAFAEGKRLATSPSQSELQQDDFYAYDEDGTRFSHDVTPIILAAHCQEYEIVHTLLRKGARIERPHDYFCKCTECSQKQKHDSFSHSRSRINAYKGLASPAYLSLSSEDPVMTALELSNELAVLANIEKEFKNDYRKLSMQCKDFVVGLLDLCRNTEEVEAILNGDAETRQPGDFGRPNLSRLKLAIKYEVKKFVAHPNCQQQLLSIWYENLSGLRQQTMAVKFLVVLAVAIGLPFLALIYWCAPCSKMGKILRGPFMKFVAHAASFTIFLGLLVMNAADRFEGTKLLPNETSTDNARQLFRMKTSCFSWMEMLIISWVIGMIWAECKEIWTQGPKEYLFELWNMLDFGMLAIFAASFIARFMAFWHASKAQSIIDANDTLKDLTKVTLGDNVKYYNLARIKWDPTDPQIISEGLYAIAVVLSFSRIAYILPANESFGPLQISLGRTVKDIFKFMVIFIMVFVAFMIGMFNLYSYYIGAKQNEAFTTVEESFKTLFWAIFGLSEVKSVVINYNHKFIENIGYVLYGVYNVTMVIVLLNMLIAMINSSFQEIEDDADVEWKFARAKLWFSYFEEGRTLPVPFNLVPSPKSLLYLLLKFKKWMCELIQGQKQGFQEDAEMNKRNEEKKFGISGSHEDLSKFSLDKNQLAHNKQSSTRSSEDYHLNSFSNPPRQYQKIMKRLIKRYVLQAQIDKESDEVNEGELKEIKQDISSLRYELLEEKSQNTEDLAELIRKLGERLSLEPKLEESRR
To be noted: Inoue et al, Circ. Res. (2001) 88: 325-332; cited from earlier work.

What is called IC50 is the concentration that gives 50% inhibition. Take `COc1ccc(CCCOC(Cn2ccnc2)c2ccc(OC)cc2)cc1` (stereo not shown) [1-[b-[3-(4-methoxyphenyl)propoxy]-4-methoxyphenethyl]-1H-imidazole.HCl]: the “Mean fluorescence response calculated as (Max − Min)/Min” value at human TRPC6 ion channel (compound concentration 0.1 μM, carbachol 10 μM) is 1.172; at human TRPC6 ion channel (compound concentration 1.0 μM, carbachol 10 μM), 0.977; at human TRPC6 ion channel (compound concentration 03 μM (so in the source), carbachol 10 μM) it was 1.128; at human TRPC6 ion channel (compound concentration 3.0 μM, carbachol 10 μM) it was 0.699; on human TRPC6 ion channel (compound concentration 10.0 μM, carbachol 10 μM) it was 0.278; at human TRPC6 ion channel (compound concentration 30.0 μM, carbachol 10 μM) it was 0.122. Besides, the half-maximal inhibitory concentration (IC50) at human TRPC6 ion channel (mean±S.E.M. from n=4 experiments, carbachol 10 μM, read-out: calculated mean IC50 value) is 4.9 ± 0.8 µM. In addition, on human TRPC6 ion channel (result in words), the “activity of the human TRPC6 ion channel” value was “inhibits”. For the same molecule, the “receptor-mediated calcium entry (RMCE)” value in test [1] is “inhibit”. For the same molecule, the “murine TRPC6 ion channel block” value at murine TRPC6 ion channel is “block”.
